{"source": "paper PMC8315060", "about": "“N-terminus-independent activation of c-Src via binding to a tetraspan(in) TM4SF5 in hepatocellular carcinoma is abolished by the TM4SF5 C-terminal peptide application” (Theranostics, 2021)", "format_in_all_cases": "cell-based", "key": {"PTP1B binding to TM4SF5": {"biological_target": "T1, PTP1B binding to TM4SF5 (Homo sapiens, UniProt O14894)", "T1 construct": "TM4SF5WT (NM-003963, 197 amino acids); expressed in transfected cells; host or cells: SNU449 cells stably expressing STrEP-TM4SF5", "T1 sequence (O14894 1-197)": "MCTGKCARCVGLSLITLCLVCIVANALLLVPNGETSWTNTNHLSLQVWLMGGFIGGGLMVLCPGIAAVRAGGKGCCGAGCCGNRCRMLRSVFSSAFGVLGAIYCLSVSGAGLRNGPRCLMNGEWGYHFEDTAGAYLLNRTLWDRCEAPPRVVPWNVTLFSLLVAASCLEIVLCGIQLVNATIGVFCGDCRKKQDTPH", "assay": "Streptavidin pull-down of STrEP-TM4SF5 and immunoblot for PTP1B after TSAHC", "settings": "stable SNU449 cells, TSAHC 20 μM for 24 h, immunoblot, Figure 3E", "source_text": "Co-immunoprecipitation: Whole cell extracts were precipitated with anti-FLAG antibody (Cell Signaling Technology) or […]-precoated beads (Sigma-Aldrich) in a cold room overnight prior to immunoblotting with the indicated antibodies. For co-immunoprecipitation of endogenous proteins, whole cell lysates of endogenous TM4SF5-expressing HepG2 cells were precipitated with either anti-TM4SF5 [27] or c-Src (sc-8056, clone H-12) antibody prior to immunoblotting for FAK, c-Src, and TM4SF5. Immunoprecipitated proteins were boiled in 2× SDS-PAGE sample buffer before undergoing western blotting using standard protocols. Quantification of band intensity was performed as described above.\n(A and B) SNU449 cells transiently transfected with the c-Src SH321 construct together with the indicated constructs were harvested (A). SNU761 cells stably expressing mock or FLAG-TM4SF5 were transiently transfected with the indicated constructs were harvested (B). The whole cell lysates (WCL) were precipitated with streptavidin beads, prior to immunoblotting. […] Quantitative comparison ratios were calculated from the blots by measurement of band intensities using Image J and normalization of them to those of loading controls. […]"}, "TM4SF5": {"biological_target": "T2, TM4SF5 (Homo sapiens, UniProt O14894)", "T2 construct": "TM4SF5WT (NM-003963, 197 amino acids); expressed in transfected cells", "T2 sequence (O14894 1-197)": "T1 sequence (O14894 1-197)", "assay": "Immunofluorescence of TM4SF5 localization after TSAHC", "settings": "TM4SF5-Flag cells, TSAHC 20 μM for 24 h, Figure 3E", "method": "Indirect immunofluorescence: Cells maintained under normal culture conditions on glass coverslips were treated with peptides for 1 day in the absence or presence of 10 μM TSAHC, a specific TM4SF5 inhibitor [29]. The cells were incubated with either PBS (non-permeabilized) or 0.5% Triton X-100 in PBS (permeabilized) for 5 min at RT and then stained using an antibody against TAT (1:100 dilution, Cell Applications, Inc., San Diego, CA, USA). Cells treated with the CPPs were also fixed with 4% formaldehyde for 10 min at RT, incubated with 30 mM glycine for 30 min, permeabilized as described above, and then stained with antibodies against pY397FAK (Cat #: 611723, BD Transduction Laboratories, 1:500 dilution) or pY861FAK (sc-16663-R, Santa Cruz Biotechnology, 1:500 dilution). Phalloidin was also used to stain for F-actin. Immunofluorescent images were acquired on a confocal (Nikon eclipse Ti; Nikon, Melville, NY, USA) or a fluorescent microscope (BX51, Olympus, Japan).\n(A and B) SNU449 cells transiently transfected with the c-Src SH321 construct together with the indicated constructs were harvested (A). […] Quantitative comparison ratios were calculated from the blots by measurement of band intensities using Image J and normalization of them to those of loading controls. […]"}, "TM4SF5 binding to c-Src": {"biological_target": "T3, TM4SF5 binding to c-Src (Homo sapiens, UniProt O14894)", "T3 construct": "TM4SF5WT (NM-003963, 197 amino acids); expressed in transfected cells", "T3 sequence (O14894 1-197)": "T1 sequence (O14894 1-197)", "assay": "TM4SF5 binding to c-Src after TSAHC treatment", "settings": "treatment of TSAHC, stated in the discussion", "source_text": "(A and B) SNU449 cells transiently transfected with the c-Src SH321 construct together with the indicated constructs were harvested (A). SNU761 cells stably expressing mock or FLAG-TM4SF5 were transiently transfected with the indicated constructs were harvested (B). The whole cell lysates (WCL) were precipitated with streptavidin beads, prior to immunoblotting. (C) SNU761 cells stably expressing mock or FLAG-TM4SF5WT (WT) were transiently transfected with the indicated construct and siRNAs against a scrambled sequence (siCont) or a sequence in PTP1B (siPTP1B). Immunoprecipitation from the WCL using anti-Flag-precoated sepharose beads was performed, before immunoblots. (D) SNU449 cells transfected with the indicated plasmids were processed for precipitation using streptavidin beads, prior to immunoblotting. (E) Stable SNU449 cells were treated with DMSO (-) or TSAHC (20 μM, +) for 24 h, before harvest, precipitation using streptavidin beads, and immunoblotting. Another cell set with TM4SF5-Flag and treated with DMSO or TSAHC as above was processed for immunofluorescence analysis. (F) SNU761 cells stably expressing TM4SF5WT were transiently transfected with the indicated siRNAs for 48 h, prior to transwell migration assay. […] Quantitative comparison ratios were calculated from the blots by measurement of band intensities using Image J and normalization of them to those of loading controls. […]"}}, "data": [{"compound": "Cc1ccc(S(=O)(=O)Nc2ccc(C(=O)C=Cc3ccc(O)cc3)cc2)cc1", "note": "[TSAHC, 4-(p-toluenesulfonylamido)-4-hydroxychalcone]", "values": [{"measurement": "PTP1B binding to TM4SF5", "setting": "PTP1B binding to TM4SF5", "result": "reduced substantially"}, {"measurement": "membrane localization of TM4SF5", "setting": "TM4SF5", "result": "still showed membrane localization of TM4SF5"}, {"measurement": "TM4SF5 binding to c-Src", "setting": "TM4SF5 binding to c-Src", "result": "impaired TM4SF5 binding to c-Src"}]}]}
